# Source: patent publication US12157730B2, “Heteroaryl derivative, method for producing same, and pharmaceutical composition comprising same as effective component” (VORONOI INC., priority 2019, dated 2024)
# Target: T1, Ba/F3 cell EGFR Exon20 ins NPH (Homo sapiens, UniProt P00533, INS773NPH)
# T1 construct: expressed in transfected cells; host or cells: Ba/F3
# Assay: Ba/F3 cell proliferation suppression, EGFR Exon20 ins NPH
# Assay type: cell-based
# Conditions: GI50 class; Ba/F3 cell line with NPH inserted at Exon20 of EGFR; 72 hours
# Outline: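 72 h compound exposure, 0.3 nM–50 um (12 points, 3:1 dilution in DMSO); viability by CellTiter-Glo luminescence. Ba/F3 medium: RPMI-1640, 10% FBS, 5 ng/ml IL-3, 1 ug/ml puromycin for transduced cells. GI50 vs control, n=3.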
row,Ba/F3 (NPH) Activity,SMILES
1,A (GI50 < 50 nM),"C=CC(=O)Nc1cc(Nc2cc(N3OCC[C@@H]3c3cccc(C)c3F)ncn2)c(OC)cc1N1CCC(N2CCC(N(C)C)CC2)CC1 [compound 420, N-(2-(4-(dimethylamino)-[1,4'-bipiperidine]-1'-yl)-5-((6-((R)-3-(2-fluoro-3-methylphenyl)isoxazolidine-2-yl)pyrimidine-4-yl)amino)-4-methoxyphenyl) acrylamide]"
2,A (GI50 < 50 nM),"C=CC(=O)Nc1cc(Nc2cc(N3OCC[C@@H]3c3cccc(F)c3F)ncn2)c(OC)cc1N1CCO[C@@H](C)C1 [compound 888, N-(5-((6-((R)-3-(2,3-difluorophenyl)isoxazolidine-2-yl)pyrimidine-4-yl)amino)-4-methoxy-2-((S)-2-methylmorpholino)phenyl)acrylamide]"
3,B (50 nM ≤ GI50 < 500 nM),"C=CC(=O)Nc1cc(Nc2cc(N3OCC[C@@H]3c3cccc(C#N)c3)ncn2)c(OC)cc1N1CCN(CC)CC1 [compound 396, N-(5-((6-((R)-3-(3-cyanophenyl)isoxazolidine-2-yl)pyrimidine-4-yl)amino)-2-(4-ethylpiperazine-1-yl)-4-methoxyphenyl) acrylamide]"
4,A (GI50 < 50 nM),"C=CC(=O)Nc1cc(Nc2cc(N3OCC[C@@H]3c3cccc4ccccc34)ncn2)c(OC)cc1N1CCC(N2CCO[C@H](C)C2)CC1 [compound 536, N-(4-methoxy-2-(4-((R)-2-methylmorpholino)piperidine-1-yl)-5-((6-((R)-3-(naphthalene-1-yl)isoxazolidine-2-yl)pyrimidine-4-yl)amino)phenyl) acrylamide]"
5,A (GI50 < 50 nM),"C=CC(=O)Nc1cc(Nc2cc(N3OCC[C@@H]3c3ccc(F)cc3F)ncn2)c(OC)cc1N1C[C@H]2C[C@@H]1CO2 [compound 353, N-(2-((1R,4R)-2-oxa-5-azabicyclo[2.2.1]heptane-5-yl)-5-((6-((R)-3-(2,4-difluorophenyl)isoxazolidine-2-yl)pyrimidine-4-yl)amino)-4-methoxyphenyl) acrylamide]"
6,A (GI50 < 50 nM),"C=CC(=O)Nc1cc(Nc2cc(N3OCC[C@@H]3Cc3cccc(Cl)c3Cl)ncn2)c(OC)cc1N1CCC(N2C[C@@H](C)O[C@@H](C)C2)CC1 [compound 1010, N-(5-((6-((S)-3-(2,3-dichlorobenzyl)isoxazolidine-2-yl)pyrimidine-4-yl)amino)-2-(4-((2S,6R)-2,6-dimethylmorpholino)piperidine-1-yl)-4-methoxyphenyl) acrylamide]"
7,A (GI50 < 50 nM),"C=CC(=O)Nc1cc(Nc2cc(N3OCC[C@@H]3c3ccc(Cl)c(F)c3)ncn2)c(OC)cc1N1CCN(C2COC2)CC1 [compound 801, N-(5-((6-((R)-3-(4-chloro-3-fluorophenyl)isoxazolidine-2-yl)pyrimidine-4-yl)amino)-4-methoxy-2-(4-(oxetane-3-yl)piperazine-1-yl)phenyl)acrylamide]"
8,A (GI50 < 50 nM),"C=CC(=O)Nc1cc(Nc2cc(N3OCC[C@@H]3c3cc(F)ccc3F)ncn2)c(OC)cc1N1CC[C@H](N(C)C)C1 [compound 301, N-(5-((6-((R)-3-(2,5-difluorophenyl)isoxazolidine-2-yl)pyrimidine-4-yl)amino)-2-((S)-3-(dimethylamino)pyrolidine-1-yl)-4-methoxyphenyl) acrylamide]"
9,A (GI50 < 50 nM),"C=CC(=O)Nc1cc(Nc2cc(N3OCC[C@@H]3c3cccc(F)c3)ncn2)c(OC)cc1N1CCC(N2C[C@@H]3C[C@H]2CO3)CC1 [Example 244, N-(2-(4-((1S,4S)-2-oxa-5-azabicyclo[2.2.1]heptane-5-yl)piperidine-1-yl)-5-((6-((R)-3-(3-fluorophenyl)isoxazolidine-2-yl)pyrimidine-4-yl)amino)-4-methoxyphenyl) acrylamide]"
10,A (GI50 < 50 nM),"C=CC(=O)Nc1cc(Nc2cc(N3OCC[C@@H]3c3cc(F)ccc3F)ncn2)c(OC)cc1N1CCN(C(C)=O)CC1 [compound 298, N-(2-(4-acetylpiperazine-1-yl)-5-((6-((R)-3-(2,5-difluorophenyl)isoxazolidine-2-yl)pyrimidine-4-yl)amino)-4-methoxyphenyl) acrylamide]"
11,B (50 nM ≤ GI50 < 500 nM),"C=CC(=O)Nc1cc(Nc2cc(N3OCC[C@@H]3c3ccc(Cl)c(Cl)c3F)ncn2)c(OC)cc1N1CCC(N2CCN(C3CCC3)CC2)CC1 [Example 74, N-(2-(4-(4-cyclobutylpiperazine-1-yl)piperidine-1-yl)-5-((6-((R)-3-(3,4-dichloro-2-fluorophenyl)isoxazolidine-2-yl)pyrimidine-4-yl)amino)-4-methoxyphenyl) acrylamide]"
12,A (GI50 < 50 nM),"C=CC(=O)Nc1cc(Nc2cc(N3OCC[C@@H]3c3cccc(Cl)c3C)ncn2)c(OC)cc1N1CCC(N2CCC(F)(F)CC2)CC1 [compound 581, N-(5-((6-((R)-3-(3-chloro-2-methylphenyl)isoxazolidine-2-yl)pyrimidine-4-yl)amino)-2-(4,4-difluoro-[1,4'-bipiperidine]-1'-yl)-4-methoxyphenyl) acrylamide]"
13,A (GI50 < 50 nM),"C=CC(=O)Nc1cc(Nc2cc(N3OCC[C@@H]3c3ccc(F)cc3F)ncn2)c(OC)cc1N1CCC(N2CCN(C3CCN(C)CC3)CC2)CC1 [compound 430, N-(5-((6-((R)-3-(2,4-difluorophenyl)isoxazolidine-2-yl)pyrimidine-4-yl)amino)-4-methoxy-2-(4-(4-(1-methylpiperidine-4-yl)piperazine-1-yl)piperidine-1-yl)phenyl)acrylamide]"
14,A (GI50 < 50 nM),"C=CC(=O)Nc1cc(Nc2cc(N3OCC[C@@H]3c3cc(F)cc(F)c3)ncn2)c(OC)cc1N1CCC(N2CCN3CCCC3C2)CC1 (stereo partly drawn) [compound 852, N-(5-((6-((R)-3-(3,5-difluorophenyl)isoxazolidine-2-yl)pyrimidine-4-yl)amino)-2-(4-(hexahydropyrrolo [1,2-a]pyrazine-2(1H)-yl)piperidine-1-yl)-4-methoxyphenyl) acrylamide]"
15,A (GI50 < 50 nM),"C=CC(=O)Nc1cc(Nc2cc(N3OCC[C@@H]3c3cccc(Cl)c3Cl)ncn2)c(OC)cc1N1CCC(N2CCOCC2)CC1 [compound 521, N-(5-((6-((R)-3-(2,3-dichlorophenyl)isoxazolidine-2-yl)pyrimidine-4-yl)amino)-4-methoxy-2-(4-morpholinopiperidine-1-yl)phenyl)acrylamide]"
16,A (GI50 < 50 nM),"C=CC(=O)Nc1cc(Nc2cc(N3OCC[C@@H]3c3cccc(Cl)c3Cl)ncn2)c(OC)cc1N1C[C@H]2C[C@@H]1CO2 [compound 523, N-(2-((1R,4R)-2-oxa-5-azabicyclo[2.2.1]heptane-5-yl)-5-((6-((R)-3-(2,3-dichlorophenyl)isoxazolidine-2-yl)pyrimidine-4-yl)amino)-4-methoxyphenyl) acrylamide]"
17,A (GI50 < 50 nM),"C=CC(=O)Nc1cc(Nc2cc(N3OCC[C@@H]3Cc3ccccc3)ncn2)c(OC)cc1N1CCN(C2CCN(C)CC2)CC1 [compound 970, N-(5-((6-((S)-3-benzylisoxazolidine-2-yl)pyrimidine-4-yl)amino)-4-methoxy-2-(4-(1-methylpiperidine-4-yl)piperazine-1-yl)phenyl)acrylamide]"
18,A (GI50 < 50 nM),"C=CC(=O)Nc1cc(Nc2cc(N3OCC[C@@H]3Cc3cccc(F)c3)ncn2)c(OC)cc1N1CCC(N2C[C@H]3C[C@@H]2CO3)CC1 [compound 998, N-(2-(4-((1R,4R)-2-oxa-5-azabicyclo [2.2.1]heptane-5-yl)piperidine-1-yl)-5-((6-((S)-3-(3-fluorobenzyl)isoxazolidine-2-yl)pyrimidine-4-yl)amino)-4-methoxyphenyl) acrylamide]"
19,A (GI50 < 50 nM),"C=CC(=O)Nc1cc(Nc2cc(N3OCC[C@@H]3c3cc(F)ccc3F)ncn2)c(OC)cc1N1CCC(N2CCN(C)[C@@H](C)C2)CC1 [compound 850, N-(5-((6-((R)-3-(2,5-difluorophenyl)isoxazolidine-2-yl)pyrimidine-4-yl)amino)-2-(4-((S)-3,4-dimethylpiperazine-1-yl)piperidine-1-yl)-4-methoxyphenyl) acrylamide]"
20,A (GI50 < 50 nM),"C=CC(=O)Nc1cc(Nc2cc(N3OCC[C@@H]3c3ccc(F)c(F)c3F)ncn2)c(OC)cc1N1CCN(CC)CC1 [compound 570, N-(2-(4-ethylpiperazine-1-yl)-4-methoxy-5-((6-((R)-3-(2,3,4-trifluorophenyl)isoxazolidine-2-yl)pyrimidine-4-yl)amino)phenyl) acrylamide]"
21,B (50 nM ≤ GI50 < 500 nM),"C=CC(=O)Nc1cc(Nc2cc(N3OCC[C@@H]3c3ccc4ccccc4c3)ncn2)c(OC)cc1N1CCC(N(C)C)CC1 [compound 510, N-(2-(4-(dimethylamino)piperidine-1-yl)-4-methoxy-5-((6-((R)-3-(naphthalene-2-yl)isoxazolidine-2-yl)pyrimidine-4-yl)amino)phenyl)acrylamide]"
22,B (50 nM ≤ GI50 < 500 nM),"C=CC(=O)Nc1cc(Nc2cc(N3OCC[C@@H]3c3ccc(C)nc3)ncn2)c(OC)cc1N1CCC(N(C)C)CC1 [Example 50, N-(2-(4-dimethylaminopiperidine-1-yl)-4-methoxy-5-((6-((R)-3-(6-methylpyridine-3-yl)isoxazolidine-2-yl)pyrimidine-4-yl)amino)phenyl) acrylamide]"
23,A (GI50 < 50 nM),"C=CC(=O)Nc1cc(Nc2cc(N3OCC[C@@H]3c3cccc(F)c3)ncn2)c(OC)cc1N1CCC(N2C[C@H]3C[C@@H]2CO3)CC1 [Example 243, N-(2-(4-((1R,4R)-2-oxa-5-azabicyclo[2.2.1]heptane-5-yl)piperidine-1-yl)-5-((6-((R)-3-(3-fluorophenyl)isoxazolidine-2-yl)pyrimidine-4-yl)amino)-4-methoxyphenyl) acrylamide]"
